How the values were obtained:
[1] = target: T1, VEGF Receptor 2 Kinase (VEGFR2) (Homo sapiens, UniProt P35968); test: Determination of VEGF receptor 2 kinase (VEGFR2) inhibitory activity (alpha screen); type: biochemical; conditions: VEGFR2 intracellular domain protein, 25 μM ATP buffer, read-out: inhibitory rate (kinase inhibitory rate of VEGFR2)
T1 construct: made in house; host or cells: SF-21 insect cells, recombinant baculovirus BAC-VEGFR2 (pFASTBAC1)
Experimental: For cloning of human VEGF receptor 2 (hereinafter to be abbreviated as VEGFR2) gene, PCR was performed using cDNA Libraries Human Placenta (Clontech) as a template. The primer used for PCR was prepared by, based on the information of the base sequence (Genbank Accession AF035121) of VEGFR2 gene, adding a base sequence encoding the flag peptide and a restriction enzyme recognition sequence to the base sequence (2671-4374 of Genbank Accession AF035121) encoding the VEGFR2 intracellular domain, so that a flag tag would be added to the N terminal of the protein. The primer base sequence is shown in the following.
PCR reaction was carried out using a KOD-plus kit (TOYOBO). The obtained PCR product was electrophoresed on an agarose gel (1%), and a DNA fragment amplified by PCR was recovered from the gel and digested with restriction enzymes Sal I and Sph I. The DNA after the restriction enzyme treatment was electrophoresed on an agarose gel (1%), and the obtained DNA fragment was recovered and ligated to the plasmid pFASTBAC1 (Invitrogen) digested with restriction enzymes Sal I and Sph I to give an expression plasmid pFB-VEGFR2. The base sequence of the inserted fragment was confirmed to have matched with the base sequence (2671-4374 of Genbank Accession AF035121) of the VEGFR2 intracellular domain. Furthermore, virus stock BAC-VEGFR2 of the recombinant Baculovirus was prepared using BAC-TO-BAC Baculovirus Expression System (Invitrogen).
SF-21 cells were inoculated into 1 L of Sf-900IISFM medium (Invitrogen) containing 10% fetal calf serum (trace), 50 mg/L Gentamicin (Invitrogen) and 0.1% Pluronic F-68 (Invitrogen) at 1×10^6 cells/ml, and shake culture was performed using a 2 L Erlenmeyer flask at 27° C., 100 rpm. After 24 hr of culture, recombinant Baculovirus BAC-VEGFR2 (13.4 mL) was added, and the culture was continued for 3 days. The culture medium was centrifuged at 2,000 rpm for 5 min to give virus-infected cells. The infected cells were washed with phosphate buffered saline (Invitrogen), centrifuged under the same conditions, and preserved at −80° C. The cryopreserved cells were thawed in ice, suspended in 30 mL of buffer A (Tris buffer, pH 7.4, containing 20% glycerol and 0.15M NaCl (50 mM)) supplemented with Complete Protease Inhibitor (Boehringer), and disrupted three times using a polytron homogenizer (Kinematica) at 20,000 rpm, 30 sec. The disrupt was clarified by centrifugation at 40,000 rpm, 30 min and filtered through a 0.45 μm filter. The filtrate was passed through a column packed with Anti-FLAG M2 Affinity Gel (Sigma Ltd., 4 mL) at a flow rate of about 0.5 mL/min. The column was washed with buffer A and eluted with buffer A containing 100 μg/mL FLAG peptide. The eluate was concentrated by Vivaspin 20 (Viva Science) having a fraction molecular weight of 30K. The concentrate was applied to NAP™ 25 column (Amersham Biosciences) equilibrated with buffer A for buffer exchange. The fractions containing the VEGFR2 intracellular domain protein were collected, glycerol was added to the final concentration of 50% and the fractions cryopreserved at ˜80° C.
The test compound dissolved in dimethyl sulfoxide (DMSO) was diluted with a buffer (50 mM Tris-HCl, pH 7.5, 5 mM MgCl2, 5 mM MnCl2, 2 mM dithiothreitol, 0.01% Tween-20). A buffer (10 μl) containing 50 ng/ml VEGFR2 intracellular domain protein and 250 ng/ml biotin-labeled polypeptide biotinyl-poly-Glu:Tyr (4:1) (CIS Bio International) was added to the compound solution (5 μl). A buffer (10 μl) containing 25 μM ATP was added to the obtained mixture, the mixture was allowed to react at 25° C. for 5 min. Then, 25 μl of a stop solution (100 mM EDTA·2 sodium salt, 62.5 mM HEPES buffer (pH 7.4), 250 mM NaCl, 0.1% bovine serum albumin, 10 μg/ml Streptavidin Donor beads: PerkinElmer for alpha screen assay, 10 μg/ml Anti-phosphotyrosine (P-Tyr-100) Acceptor beads: PerkinElmer for alpha screen assay) was added to quench the reaction. […]

[2] = target: T2, PDGFR Alpha Receptor Kinase (PDGFRalpha) (Homo sapiens, UniProt P16234); test: Determination of PDGFR alpha receptor kinase (PDGFRalpha) inhibitory activity (alpha screen); type: biochemical; conditions: PDGFRalpha intracellular domain protein, 25 μM ATP buffer; read-out: IC50 value (PDGFRalpha kinase inhibition)
T2 construct: PDGFRalpha intracellular domain protein (UPSTATE); purchased UPSTATE
Experimental: The test compound dissolved in dimethyl sulfoxide (DMSO) was diluted with a buffer (50 mM Tris-HCl, pH 7.5, 5 mM MgCl2, 5 mM MnCl2, 2 mM dithiothreitol, 0.01% Tween-20).
Acceptor beads: PerkinElmer for alpha screen assay) was added to quench the reaction. The reaction solution was stood at 25° C. for 16 hr, and the count was measured using a plate reader·Fusion™ (manufactured by PerkinElmer). The kinase inhibitory rate (%) of the test compound was calculated by the following formula.
(§1) Inhibitory rate(%)=(1−(count of test compound−blank)÷(control−blank))×100
(§2) wherein the count of the solution reacted without addition of the compound is “control” and the count of the solution without addition of the compound and ATP is “blank”.

[3] = target: T3, PDGFRbeta Receptor Kinase (PDGFRbeta) (Homo sapiens, UniProt P09619); test: Determination of PDGFRbeta receptor kinase (PDGFRbeta) inhibitory activity (alpha screen); type: biochemical; conditions: PDGFRbeta intracellular domain protein, 25 μM ATP buffer; read-out: IC50 value (PDGFRbeta kinase inhibition)
T3 construct: PDGFRbeta intracellular domain protein (UPSTATE); purchased UPSTATE
Experimental: (§3) The test compound dissolved in dimethyl sulfoxide (DMSO) was diluted with a buffer (50 mM Tris-HCl, pH 7.5, 5 mM MgCl2, 5 mM MnCl2, 2 mM dithiothreitol, 0.01% Tween-20). A buffer (10 μl) containing 125 ng/ml PDGFRbeta intracellular domain protein (UPSTATE) and 250 ng/ml biotin-labeled polypeptide biotinyl-poly-Glu:Tyr (4:1) (CIS Bio International) was added to the compound solution (5 μl). At 5 min after mixing a kinase enzyme, the compound and a biotin-labeled polypeptide, a buffer (10 μl) containing 25 μM ATP was added to the obtained mixture, the mixture was allowed to react at 25° C. for 30 min. Then, 25 μl of a stop solution (100 mM EDTA·2 sodium salt, 62.5 mM HEPES buffer (pH 7.4), 250 mM NaCl, 0.1% bovine serum albumin, 10 μg/ml Streptavidin Donor beads: PerkinElmer for alpha screen assay, 10 μg/ml Anti-phosphotyrosine (P-Tyr-66) Acceptor beads: PerkinElmer for alpha screen assay) was added to quench the reaction. The reaction solution was stood at 25° C. for 16 hr, and the count was measured using a plate reader·Fusion™ (manufactured by PerkinElmer). The kinase inhibitory rate (%) of the test compound was calculated by the following formula.
as §1, §2

[4] = tested on: Human umbilical vein endothelial cells (HUVEC); test: Vascular endothelial cell growth inhibitory test; type: cell-based; conditions: Homo sapiens, 120 h, VEGF 120 ng/mL, culture 5 days, XTT reagent
Experimental: Human umbilical vein endothelial cells (HUVEC, purchased from KURABO) were cultured in a gas incubator (37° C., CO2 5%) in a vascular endothelial cell medium (Invitrogen) containing 5% fetal calf serum and a basic fibroblast growth factor (2.5 ng/mL). To be specific, HUVEC suspended in the aforementioned vascular endothelial cell medium (Invitrogen) containing 5% fetal calf serum were seeded into a 96 well flat-bottom plate (50 μL, 3000 cells each well). After culturing overnight, various concentrations of test substance and the final concentration (120 ng/mL) of vascular endothelial growth factor (VEGF) were dissolved in a vascular endothelial cell medium (Invitrogen) containing 5% fetal calf serum and added to each well (50 μL). After culturing for 5 days, an XTT reagent (Wako Pure Chemical Industries, Ltd.) was added to each well (10 μL), and reacted in a gas incubator (37° C., CO2 5%) for 2-3 hr. The absorbance at 450 nm was measured by a microtiter plate reader, and the cell growth inhibitory activity was determined.

[5] = target: T4, TIE2 Receptor Kinase (TIE2) (Homo sapiens, UniProt Q02763); test: Determination of TIE2 receptor kinase (TIE2) inhibitory activity (alpha screen); type: biochemical; conditions: TIE2 intracellular domain protein, 5 μM ATP buffer; read-out: IC50 value (TIE2 kinase inhibition)
T4 construct: TIE2 intracellular domain protein (UPSTATE); purchased UPSTATE
Experimental: as §3, with “containing 50” for “containing 125”, “ng/ml TIE2” for “ng/ml PDGFRbeta”, “containing 5” for “containing 25”, “for 10” for “for 30”
as §1, §2
Prism (Graphpad Software) according to the nonlinear-regression sigmoidal dose-response (variable slope) analysis method.

T3 sequence (P09619 554-1106 limits assumed): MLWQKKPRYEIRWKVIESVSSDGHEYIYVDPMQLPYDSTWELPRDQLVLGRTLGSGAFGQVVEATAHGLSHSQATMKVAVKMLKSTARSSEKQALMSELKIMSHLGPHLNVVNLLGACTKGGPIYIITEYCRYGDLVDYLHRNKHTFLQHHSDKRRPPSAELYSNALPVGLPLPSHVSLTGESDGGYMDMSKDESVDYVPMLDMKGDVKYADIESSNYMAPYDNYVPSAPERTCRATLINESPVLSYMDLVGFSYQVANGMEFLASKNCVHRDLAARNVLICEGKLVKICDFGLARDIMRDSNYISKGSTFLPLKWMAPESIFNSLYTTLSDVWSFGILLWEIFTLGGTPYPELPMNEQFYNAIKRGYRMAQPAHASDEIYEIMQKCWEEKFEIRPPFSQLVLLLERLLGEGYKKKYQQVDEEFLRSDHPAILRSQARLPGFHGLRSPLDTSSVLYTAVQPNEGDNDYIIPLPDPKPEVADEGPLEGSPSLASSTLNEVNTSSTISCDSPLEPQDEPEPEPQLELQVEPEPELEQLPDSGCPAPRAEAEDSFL
T2 sequence (P16234 550-1089 limits assumed): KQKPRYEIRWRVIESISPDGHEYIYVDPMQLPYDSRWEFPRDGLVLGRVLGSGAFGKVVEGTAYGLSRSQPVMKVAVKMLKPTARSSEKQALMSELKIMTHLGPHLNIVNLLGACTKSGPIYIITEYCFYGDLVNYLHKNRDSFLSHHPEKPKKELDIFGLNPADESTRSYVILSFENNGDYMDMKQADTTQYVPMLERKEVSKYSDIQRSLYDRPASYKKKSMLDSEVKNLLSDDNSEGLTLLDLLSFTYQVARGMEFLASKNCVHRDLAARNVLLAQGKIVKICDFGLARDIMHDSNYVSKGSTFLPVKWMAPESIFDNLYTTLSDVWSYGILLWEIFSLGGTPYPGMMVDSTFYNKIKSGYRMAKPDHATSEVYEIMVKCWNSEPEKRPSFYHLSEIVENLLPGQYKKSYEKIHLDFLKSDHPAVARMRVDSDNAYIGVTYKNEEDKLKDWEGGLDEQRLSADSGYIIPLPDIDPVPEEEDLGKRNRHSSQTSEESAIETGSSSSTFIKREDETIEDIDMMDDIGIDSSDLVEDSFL
T1 sequence (P35968 786-1356 limits assumed): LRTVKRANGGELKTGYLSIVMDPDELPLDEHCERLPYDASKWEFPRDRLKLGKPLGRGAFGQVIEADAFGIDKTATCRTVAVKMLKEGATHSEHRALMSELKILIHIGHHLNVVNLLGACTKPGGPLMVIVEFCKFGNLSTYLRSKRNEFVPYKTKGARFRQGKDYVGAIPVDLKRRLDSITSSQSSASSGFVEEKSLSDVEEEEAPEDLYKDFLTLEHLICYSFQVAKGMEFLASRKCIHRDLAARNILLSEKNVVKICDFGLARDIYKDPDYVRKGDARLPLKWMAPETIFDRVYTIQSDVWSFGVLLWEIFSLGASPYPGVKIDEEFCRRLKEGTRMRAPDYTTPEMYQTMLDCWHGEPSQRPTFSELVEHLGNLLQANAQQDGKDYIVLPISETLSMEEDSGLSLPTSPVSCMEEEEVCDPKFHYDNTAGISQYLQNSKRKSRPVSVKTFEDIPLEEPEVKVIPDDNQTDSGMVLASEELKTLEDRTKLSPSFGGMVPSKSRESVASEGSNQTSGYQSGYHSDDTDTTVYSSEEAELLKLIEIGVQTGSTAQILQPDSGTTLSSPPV
T4 sequence (Q02763 770-1124 limits assumed): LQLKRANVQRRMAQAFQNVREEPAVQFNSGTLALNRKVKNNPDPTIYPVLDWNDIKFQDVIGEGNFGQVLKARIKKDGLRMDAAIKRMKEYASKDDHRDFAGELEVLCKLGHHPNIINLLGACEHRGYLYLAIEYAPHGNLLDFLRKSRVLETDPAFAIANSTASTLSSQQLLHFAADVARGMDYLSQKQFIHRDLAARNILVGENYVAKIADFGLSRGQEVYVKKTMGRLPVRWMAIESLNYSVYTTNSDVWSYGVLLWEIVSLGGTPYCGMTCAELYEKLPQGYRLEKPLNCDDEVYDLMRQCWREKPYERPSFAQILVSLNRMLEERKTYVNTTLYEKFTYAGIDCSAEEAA

Structure (SMILES) | inhibition at 1 µM [1] | IC50 [2] | IC50 [3] | IC50 [4] | IC50 [5]
Cc1cccc(NC(=O)Nc2ccc(Oc3ncnc4ccn(C)c34)cc2)c1 [Example 18, N-(3-methylphenyl)-N′-{4-[(5-methyl-5H-pyrrolo[3,2-d]pyrimidin-4-yl)oxy]phenyl}urea] | ≥ 90% | ≤ 500 nM | ≤ 500 nM | 53 nM | –
Cn1ccc2ncnc(Oc3ccc(NC(=O)Nc4cccc(Cl)c4)cc3)c21 [Example 4, N-(3-chlorophenyl)-N′-{4-[(5-methyl-5H-pyrrolo[3,2-d]pyrimidin-4-yl)oxy]phenyl}urea] | ≥ 90% | ≤ 500 nM | ≤ 500 nM | 91 nM | –
COc1cc(Oc2ncnc3ccn(C)c23)ccc1NC(=O)Nc1cccc(C(F)(F)F)c1 [Example 77, N-{2-methoxy-4-[(5-methyl-5H-pyrrolo[3,2-d]pyrimidin-4-yl)oxy]phenyl}-N′-[3-(trifluoromethyl)phenyl]urea] | ≥ 90% | ≤ 500 nM | ≤ 500 nM | – | ≤ 5 nM

Source: patent publication US20090137580A1, “Fused Heterocyclic Derivatives and Use Thereof” (Takeda Pharmaceutical Company Limited, priority 2005, published 2009)
